{"source": "PubChem BioAssay (NCI)", "assay_in_all_cases": "NCI anticancer screen, dose series, 48 h", "key": {"[1]": {"tested_on": "NCI-H226 lung"}, "[2]": {"tested_on": "A498 renal"}, "[3]": {"tested_on": "NCI-H460 lung"}, "[4]": {"tested_on": "LOX IMVI melanoma"}, "[5]": {"tested_on": "MDA-MB-435"}, "[6]": {"tested_on": "SK-MEL-2 melanoma"}, "[7]": {"tested_on": "UACC-62 melanoma"}, "[8]": {"tested_on": "MCF7 breast"}, "[9]": {"tested_on": "KM12 colon"}, "[10]": {"tested_on": "OVCAR-5 ovarian"}, "[11]": {"tested_on": "SW-620 colon"}, "[12]": {"tested_on": "SR leukemia"}, "[13]": {"tested_on": "HCT-15 colon"}, "[14]": {"tested_on": "MALME-3M melanoma"}, "[15]": {"tested_on": "786-0 renal"}, "[16]": {"tested_on": "MDA-MB-231 breast"}, "[17]": {"tested_on": "RXF 393 renal"}, "[18]": {"tested_on": "UACC-257 melanoma"}, "[19]": {"tested_on": "U251 CNS"}, "[20]": {"tested_on": "NCI-H522 lung"}, "[21]": {"tested_on": "OVCAR-3 ovarian"}, "[22]": {"tested_on": "SNB-19 CNS"}, "[23]": {"tested_on": "PC-3 prostate"}, "[24]": {"tested_on": "RPMI-8226 leukemia"}, "[25]": {"tested_on": "DU-145 prostate"}, "[26]": {"tested_on": "A549 NSCLC"}, "[27]": {"tested_on": "SF-539 CNS"}, "[28]": {"tested_on": "BT-549 breast"}, "[29]": {"tested_on": "SF-268 CNS"}, "[30]": {"tested_on": "ACHN renal"}, "[31]": {"tested_on": "SK-MEL-28 melanoma"}, "[32]": {"tested_on": "TK-10 renal"}, "[33]": {"tested_on": "HCT-116 colon"}, "[34]": {"tested_on": "EKVX NSCLC"}, "[35]": {"tested_on": "COLO 205 colon"}, "[36]": {"tested_on": "T-47D breast"}, "[37]": {"tested_on": "HOP-62 NSCLC"}, "[38]": {"tested_on": "UO-31 renal"}, "[39]": {"tested_on": "SN12C renal"}, "[40]": {"tested_on": "SF-295 CNS"}, "[41]": {"tested_on": "HOP-92 NSCLC"}, "[42]": {"tested_on": "HT29 colon"}, "[43]": {"tested_on": "NCI-H23 lung"}, "[44]": {"tested_on": "K-562 leukemia"}, "[45]": {"tested_on": "SK-OV-3 ovarian"}, "[46]": {"tested_on": "SK-MEL-5 melanoma"}, "[47]": {"tested_on": "HCC-2998 colon"}, "[48]": {"tested_on": "M14 melanoma"}, "[49]": {"tested_on": "HL-60(TB) leukemia"}, "[50]": {"tested_on": "OVCAR-8 ovarian"}, "[51]": {"tested_on": "CAKI-1 renal"}, "[52]": {"tested_on": "IGROV1 ovarian"}, "[53]": {"tested_on": "NCI/ADR-RES ovarian"}, "[54]": {"tested_on": "HS 578T breast"}, "[55]": {"tested_on": "MOLT-4 leukemia"}, "[56]": {"tested_on": "CCRF-CEM leukemia"}, "[57]": {"tested_on": "OVCAR-4 ovarian"}}, "note": "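Interpolation was linear, between the two tested concentrations surrounding the appropriate level; five concentrations were tested over 48 hours in 96-well plates. TGI is the concentration that stops growth completely.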"}
{"smiles": "CCCCCCN(CCCCCC)CCC(=O)c1ccc2cc(Br)c3ccccc3c2c1", "values": [{"measurement": "TGI", "setting": "[1]", "value": "> 100000", "unit": "nM"}, {"measurement": "TGI", "setting": "[2]", "value": "> 100000", "unit": "nM"}, {"measurement": "TGI", "setting": "[3]", "value": "> 100", "unit": "µM"}, {"measurement": "TGI", "setting": "[4]", "value": 98.3, "unit": "µM"}, {"measurement": "TGI", "setting": "[5]", "value": 74.3, "unit": "µM"}, {"measurement": "TGI", "setting": "[6]", "value": 92.9, "unit": "µM"}, {"measurement": "TGI", "setting": "[7]", "value": 74.5, "unit": "µM"}, {"measurement": "TGI", "setting": "[8]", "value": 54.9, "unit": "µM"}, {"measurement": "TGI", "setting": "[9]", "value": 52.9, "unit": "µM"}, {"measurement": "TGI", "setting": "[10]", "value": "> 100", "unit": "µM"}, {"measurement": "TGI", "setting": "[11]", "value": "> 100", "unit": "µM"}, {"measurement": "TGI", "setting": "[12]", "value": 14.3, "unit": "µM"}, {"measurement": "TGI", "setting": "[13]", "value": "> 100", "unit": "µM"}, {"measurement": "TGI", "setting": "[14]", "value": "> 100", "unit": "µM"}, {"measurement": "TGI", "setting": "[15]", "value": "> 100", "unit": "µM"}, {"measurement": "TGI", "setting": "[16]", "value": 67.4, "unit": "µM"}, {"measurement": "TGI", "setting": "[17]", "value": 64.3, "unit": "µM"}, {"measurement": "TGI", "setting": "[18]", "value": "> 100", "unit": "µM"}, {"measurement": "TGI", "setting": "[19]", "value": "> 100", "unit": "µM"}, {"measurement": "TGI", "setting": "[20]", "value": 87.1, "unit": "µM"}, {"measurement": "TGI", "setting": "[21]", "value": "> 100", "unit": "µM"}, {"measurement": "TGI", "setting": "[22]", "value": "> 100", "unit": "µM"}, {"measurement": "TGI", "setting": "[23]", "value": "> 100000", "unit": "nM"}, {"measurement": "TGI", "setting": "[24]", "value": "> 100000", "unit": "nM"}, {"measurement": "TGI", "setting": "[25]", "value": "> 100000", "unit": "nM"}, {"measurement": "TGI", "setting": "[26]", "value": "> 100", "unit": "µM"}, {"measurement": "TGI", "setting": "[27]", "value": 52.5, "unit": "µM"}, {"measurement": "TGI", "setting": "[28]", "value": 51.6, "unit": "µM"}, {"measurement": "TGI", "setting": "[29]", "value": "> 100", "unit": "µM"}, {"measurement": "TGI", "setting": "[30]", "value": "> 100000", "unit": "nM"}, {"measurement": "TGI", "setting": "[31]", "value": "> 100", "unit": "µM"}, {"measurement": "TGI", "setting": "[32]", "value": 65.2, "unit": "µM"}, {"measurement": "TGI", "setting": "[33]", "value": "> 100", "unit": "µM"}, {"measurement": "TGI", "setting": "[34]", "value": "> 100", "unit": "µM"}, {"measurement": "TGI", "setting": "[35]", "value": 80.4, "unit": "µM"}, {"measurement": "TGI", "setting": "[36]", "value": 60.5, "unit": "µM"}, {"measurement": "TGI", "setting": "[37]", "value": "> 100000", "unit": "nM"}, {"measurement": "TGI", "setting": "[38]", "value": "> 100", "unit": "µM"}, {"measurement": "TGI", "setting": "[39]", "value": "> 100", "unit": "µM"}, {"measurement": "TGI", "setting": "[40]", "value": "> 100", "unit": "µM"}, {"measurement": "TGI", "setting": "[41]", "value": 64.9, "unit": "µM"}, {"measurement": "TGI", "setting": "[42]", "value": "> 100", "unit": "µM"}, {"measurement": "TGI", "setting": "[43]", "value": "> 100", "unit": "µM"}, {"measurement": "TGI", "setting": "[44]", "value": "> 100", "unit": "µM"}, {"measurement": "TGI", "setting": "[45]", "value": "> 100", "unit": "µM"}, {"measurement": "TGI", "setting": "[46]", "value": 96.1, "unit": "µM"}, {"measurement": "TGI", "setting": "[47]", "value": "> 100", "unit": "µM"}, {"measurement": "TGI", "setting": "[48]", "value": "> 100", "unit": "µM"}, {"measurement": "TGI", "setting": "[49]", "value": 56.2, "unit": "µM"}, {"measurement": "TGI", "setting": "[50]", "value": "> 100", "unit": "µM"}, {"measurement": "TGI", "setting": "[51]", "value": "> 100", "unit": "µM"}, {"measurement": "TGI", "setting": "[52]", "value": "> 100", "unit": "µM"}, {"measurement": "TGI", "setting": "[53]", "value": "> 100", "unit": "µM"}, {"measurement": "TGI", "setting": "[54]", "value": "> 100", "unit": "µM"}]}
{"smiles": "CN(C)c1ccc(/C=C/C=c2/c3ccccc3n3c2cc(-c2ccccc2)[n+]3C)cc1", "values": [{"measurement": "TGI", "setting": "[55]", "value": 724, "unit": "nM"}, {"measurement": "TGI", "setting": "[1]", "value": 1820, "unit": "nM"}, {"measurement": "TGI", "setting": "[2]", "value": 1230, "unit": "nM"}, {"measurement": "TGI", "setting": "[17]", "value": 1.62, "unit": "µM"}, {"measurement": "TGI", "setting": "[23]", "value": 1170, "unit": "nM"}, {"measurement": "TGI", "setting": "[25]", "value": 1030, "unit": "nM"}, {"measurement": "TGI", "setting": "[30]", "value": 1630, "unit": "nM"}, {"measurement": "TGI", "setting": "[34]", "value": 1.57, "unit": "µM"}, {"measurement": "TGI", "setting": "[37]", "value": 1190, "unit": "nM"}, {"measurement": "TGI", "setting": "[56]", "value": "> 100", "unit": "µM"}, {"measurement": "TGI", "setting": "[44]", "value": "> 100", "unit": "µM"}, {"measurement": "TGI", "setting": "[49]", "value": 0.509, "unit": "µM"}, {"measurement": "TGI", "setting": "[57]", "value": 2110, "unit": "nM"}, {"measurement": "TGI", "setting": "[51]", "value": 1.17, "unit": "µM"}, {"measurement": "TGI", "setting": "[53]", "value": "> 100", "unit": "µM"}]}
{"smiles": "Cc1cc(N)c2ccccc2[n+]1CCCCCCCCCCNc1cc(C)[n+](CCCCCCCCCC[n+]2c(C)cc(N)c3ccccc32)c2ccccc12", "values": [{"measurement": "TGI", "setting": "[8]", "value": "> 100", "unit": "µM"}, {"measurement": "TGI", "setting": "[24]", "value": 1520, "unit": "nM"}, {"measurement": "TGI", "setting": "[34]", "value": 33.7, "unit": "µM"}, {"measurement": "TGI", "setting": "[35]", "value": "> 100", "unit": "µM"}, {"measurement": "TGI", "setting": "[42]", "value": 29, "unit": "µM"}, {"measurement": "TGI", "setting": "[51]", "value": "> 100", "unit": "µM"}]}
